Data on 13 compounds can be found in patent publication US11639343B2, “Compounds targeting and degrading BCR-ABL protein and its antitumor application” (ShanghaiTech University, priority 2019, dated 2023).

Where two headings read alike, the source gives them in different places.

The subject of assay [1] is K562 (BCR-ABL+) cells. As to the kind of experiment: CCK-8 proliferation inhibition, K562 cells.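 Note: Ten-point threefold dilution series starting at 10 µM, absorbance at 450 nm after 2 h with CCK-8, DMSO as negative control.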 The class given is cell-based, human. The settings on record: read-out: Proliferative inhibitory activity (IC50, nM) K562 (BCR-ABL+).
For assay [2], the system named is U937 (BCR-ABL-) cells. As to the kind of experiment: CCK-8 proliferation inhibition, U937 cells.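 Note: Ten-point threefold dilution series, absorbance at 450 nm after 2 h with CCK-8 reagent, DMSO as negative control.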 The class given is cell-based, human. Particulars: read-out: Proliferative inhibitory activity (IC50, nM) U937 (BCR-ABL-).
The subject of assay [3] is HEK293 (BCR-ABL-) cells. As to the kind of experiment: CCK-8 proliferation inhibition, HEK293 cells.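 Note: Ten-point threefold dilution series starting at 10 µM, CCK-8 absorbance at 450 nm read after 2 h reagent incubation, DMSO-treated cells as negative control.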 Particulars: read-out: Proliferative inhibitory activity (IC50, nM) HEK293 (BCR-ABL-).
[4] abbreviates: Homo sapiens, K562, 48 h, CCK-8, 48 hours of drug treatment.
The mark [5] stands for this setting: Homo sapiens, U-937, CCK-8, 48 hours of drug treatment, highest concentration 10 μM.
Setting [6] is: CCK-8, 48 hours of drug treatment.
[7] abbreviates: CCK-8, 48 hours of drug treatment, highest concentration 10 μM.

`COc1cc(Nc2c(C#N)cnc3cc(OCCCN4CCN(C)CC4)c(OC)cc23)c(Cl)cc1Cl` [Bosutinib, reference compound]: the IC50 in assay [1] (Homo sapiens, K562, 48 h) is 29.6 nM; in assay [2] (Homo sapiens, U-937, 48 h), > 10000 nM.
With `Cc1nc(Nc2ncc(C(=O)Nc3c(C)cccc3Cl)s2)cc(N2CCN(C(=O)CCNc3cccc4c3C(=O)N(C3CCC(=O)NC3=O)C4=O)CC2)n1` (centres unmarked) [SIAIS151074, N-(2-chloro-6-methylphenyl)-2-((6-(4-(3-((2-(2,6-dioxopiperidin-3-yl)-1,3-dioxoisoindolin-4-yl)amino)propanoyl)piperazin-1-yl)-2-methylpyrimidin-4-yl)amino)thiazole-5-carboxamide], the IC50 in assay [1] (setting [4]) is 6.8 nM; in assay [2] (setting [5]), > 10000 nM; in assay [3] (Homo sapiens, HEK293, 48 h) it was > 10000 nM.
On to `Cc1nc(Nc2ncc(C(=O)Nc3c(C)cccc3Cl)s2)cc(N2CCN(C(=O)COCCOCC(=O)N[C@H](C(=O)N3C[C@H](O)C[C@H]3C(=O)NCc3ccc(-c4scnc4C)cc3)C(C)(C)C)CC2)n1` [SIAIS151076, N-(2-chloro-6-methylphenyl)-2-((6-(4-(2-(2-(2-(((S)-1-((2S,4R)-4-hydroxy-2-((4-(4-methylthiazol-5-yl)benzyl)carbamoyl)pyrrolidin-1-yl)-3,3-dimethyl-1-oxobutan-2-yl)amino)-2-oxoethoxy)ethoxy)acetyl)piperazin-1-yl)-2-methylpyrimidin-4-yl)amino)thiazole-5-carboxamide], for which the half-inhibitory concentration (IC50) in assay [1] (setting [6]) was 670 nM; in assay [2] (setting [7]) it was > 10000 nM; in assay [3] (setting [7]), > 10000 nM.
For `Cc1nc(Nc2ncc(C(=O)Nc3c(C)cccc3Cl)s2)cc(N2CCN(C(=O)CCOCCOCCOCCC(=O)N[C@H](C(=O)N3C[C@H](O)C[C@H]3C(=O)NCc3ccc(-c4scnc4C)cc3)C(C)(C)C)CC2)n1` [SIAIS151077, N-(2-chloro-6-methylphenyl)-2-((6-(4-((S)-15-((2S,4R)-4-hydroxy-2-((4-(4-methylthiazol-5-yl)benzyl)carbamoyl)pyrrolidine-1-carbonyl)-16,16-dimethyl-13-oxo-4,7,10-trioxa-14-azaheptadecanoyl)piperazin-1-yl)-2-methylpyrimidin-4-yl)amino)thiazole-5-carboxamide], the IC50 was 3430 nM in assay [1] (setting [4]); > 10000 nM in assay [2] (setting [5]); > 10000 nM in assay [3] (Homo sapiens, HEK293, 48 h).
In the case of `Cc1nc(Nc2ncc(C(=O)Nc3c(C)cccc3Cl)s2)cc(N2CCN(C(=O)CCOCCOCCOCCOCCOCCC(=O)N[C@H](C(=O)N3C[C@H](O)C[C@H]3C(=O)NCc3ccc(-c4scnc4C)cc3)C(C)(C)C)CC2)n1` [SIAIS151079, N-(2-chloro-6-methylphenyl)-2-((6-(4-((S)-21-((2S,4R)-4-hydroxy-2-((4-(4-methylthiazol-5-yl)benzyl)carbamoyl)pyrrolidine-1-carbonyl)-22,22-dimethyl-19-oxo-4,7,10,13,16-pentaoxa-20-azatricosanoyl)piperazin-1-yl)-2-methylpyrimidin-4-yl)amino)thiazole-5-carboxamide], the half-inhibitory concentration (IC50) in assay [1] (setting [4]) is 1610 nM; in assay [2] (setting [5]), > 10000 nM; in assay [3] (Homo sapiens, HEK293, 48 h), > 10000 nM.
On to `Cc1nc(Nc2ncc(C(=O)Nc3c(C)cccc3Cl)s2)cc(N2CCN(C(=O)COCCOCC(=O)N[C@H](C(=O)N3C[C@H](O)C[C@H]3C(=O)NCc3ccc(-c4scnc4C)cc3)C(C)(C)C)CC2)n1` [SIAIS151080, N-(2-chloro-6-methylphenyl)-2-((6-(4-(2-(2-(2-(((S)-1-((2S,4R)-4-hydroxy-2-((4-(4-methylthiazol-5-yl)benzyl)carbamoyl)pyrrolidin-1-yl)-3,3-dimethyl-1-oxobutan-2-yl)amino)-2-oxoethoxy)ethoxy)acetyl)piperazin-1-yl)-2-methylpyrimidin-4-yl)amino)thiazole-5-carboxamide], for which the IC50 is 2240 nM in assay [1] (setting [6]); > 10000 nM in assay [2] (setting [5]); > 10000 nM in assay [3] (Homo sapiens, HEK293, 48 h).
In the case of `COc1cc(Nc2c(C#N)cnc3cc(OCCCN4CCN(C(=O)CC(=O)Nc5cccc6c5CN(C5CCC(=O)NC5=O)C6=O)CC4)c(OC)cc23)c(Cl)cc1Cl` (centres unmarked) [SIAIS164104, 3-(4-(3-((3-cyano-4-((2,4-dichloro-5-methoxyphenyl)amino)-6-methoxyquinolin-7-yl)oxy)propyl)piperazin-1-yl)-N-(2-(2,6-dioxopiperidin-3-yl)-1-oxoisoindolin-4-yl)-3-oxopropanamide], the IC50 in assay [1] (setting [4]) was 811 nM; in assay [2] (setting [5]), > 10000 nM; in assay [3] (Homo sapiens, HEK293, 48 h), > 10000 nM.
As to `COc1cc(Nc2c(C#N)cnc3cc(OCCCN4CCN(C(=O)CCCC(=O)Nc5cccc6c5CN(C5CCC(=O)NC5=O)C6=O)CC4)c(OC)cc23)c(Cl)cc1Cl` (centres unmarked) [SIAIS164106, 5-(4-(3-((3-cyano-4-((2,4-dichloro-5-methoxyphenyl)amino)-6-methoxyquinolin-7-yl)oxy)propyl)piperazin-1-yl)-N-(2-(2,6-dioxopiperidin-3-yl)-1-oxoisoindolin-4-yl)-5-oxopentanamide], the IC50 was 438 nM in assay [1] (setting [4]); > 10000 nM in assay [2] (setting [5]); > 10000 nM in assay [3] (Homo sapiens, HEK293, 48 h).
As to `Cc1nc(Nc2ncc(C(=O)Nc3c(C)cccc3Cl)s2)cc(N2CCN(C(=O)CCCc3cn(CCCC(=O)N[C@H](C(=O)N4C[C@H](O)C[C@H]4C(=O)NCc4ccc(-c5scnc5C)cc4)C(C)(C)C)nn3)CC2)n1` [SIAIS164134, N-(2-chloro-6-methylphenyl)-2-((6-(4-(4-(1-(4-(((S)-1-((2S,4R)-4-hydroxy-2-((4-(4-methylthiazol-5-yl)benzyl)carbamoyl)pyrrolidin-1-yl)-3,3-dimethyl-1-oxobutan-2-yl)amino)-4-oxobutyl)-1H-1,2,3-triazol-4-yl)butanoyl)piperazin-1-yl)-2-methylpyrimidin-4-yl)amino)thiazole-5-carboxamide], the IC50 in assay [1] (setting [4]) is 12 nM; in assay [2] (setting [5]), > 10000 nM; in assay [3] (Homo sapiens, HEK293, 48 h), > 10000 nM.
As for `Cc1nc(Nc2ncc(C(=O)Nc3c(C)cccc3Cl)s2)cc(N2CCN(C(=O)CCCCCCCCCCCCC(=O)N[C@H](C(=O)N3C[C@H](O)C[C@H]3C(=O)NCc3ccc(-c4scnc4C)cc3)C(C)(C)C)CC2)n1` [SIAIS164193, N-(2-chloro-6-methylphenyl)-2-((6-(4-(14-(((S)-1-((2S,4R)-4-hydroxy-2-((4-(4-methylthiazol-5-yl)benzyl)carbamoyl)pyrrolidin-1-yl)-3,3-dimethyl-1-oxobutan-2-yl)amino)-14-oxotetradecanoyl)piperazin-1-yl)-2-methylpyrimidin-4-yl)amino)thiazole-5-carboxamide], the half-inhibitory concentration (IC50) in assay [1] (setting [4]) is 14.4 nM; in assay [2] (setting [5]), > 10000 nM; in assay [3] (Homo sapiens, HEK293, 48 h), > 10000 nM.
As for `Cc1nc(Nc2ncc(C(=O)Nc3c(C)cccc3Cl)s2)cc(N2CCN(C(=O)CCCCCCCCCCCCCCC(=O)N[C@H](C(=O)N3C[C@H](O)C[C@H]3C(=O)NCc3ccc(-c4scnc4C)cc3)C(C)(C)C)CC2)n1` [SIAIS164194, N-(2-chloro-6-methylphenyl)-2-((6-(4-(16-(((S)-1-((2S,4R)-4-hydroxy-2-((4-(4-methylthiazol-5-yl)benzyl)carbamoyl)pyrrolidin-1-yl)-3,3-dimethyl-1-oxobutan-2-yl)amino)-16-oxohexadecanoyl)piperazin-1-yl)-2-methylpyrimidin-4-yl)amino)thiazole-5-carboxamide], the IC50 in assay [1] (setting [4]) was 32.3 nM; in assay [2] (setting [5]), > 10000 nM; in assay [3] (Homo sapiens, HEK293, 48 h), > 10000 nM.
With `Cc1nc(Nc2ncc(C(=O)Nc3c(C)cccc3Cl)s2)cc(N2CCN(C(=O)CCCCCOCCOCCOCCCCCC(=O)N[C@H](C(=O)N3C[C@H](O)C[C@H]3C(=O)NCc3ccc(-c4scnc4C)cc3)C(C)(C)C)CC2)n1` [SIAIS180147, N-(2-chloro-6-methylphenyl)-2-((6-(4-((S)-3-((2S,4R)-4-hydroxy-2-((4-(4-methylthiazol-5-yl)benzyl)carbamoyl)pyrrolidine-1-carbonyl)-2,2-dimethyl-5-oxo-11,14,17-trioxa-4-azatricosan-23-oyl)piperazin-1-yl)-2-methylpyrimidin-4-yl)amino)thiazole-5-carboxamide], the IC50 in assay [1] (setting [4]) is 14.9 nM; in assay [2] (setting [5]), > 10000 nM; in assay [3] (Homo sapiens, HEK293, 48 h) it was > 10000 nM.
As to `Cc1nc(Nc2ncc(C(=O)Nc3c(C)cccc3Cl)s2)cc(N2CCN(C(=O)CCCCNC(=O)CCCCCCCCC(=O)N[C@H](C(=O)N3C[C@H](O)C[C@H]3C(=O)NCc3ccc(-c4scnc4C)cc3)C(C)(C)C)CC2)n1` [SIAIS184032, N1-(5-(4-(6-((5-((2-chloro-6-methylphenyl)carbamoyl)thiazol-2-yl)amino)-2-methylpyrimidin-4-yl)piperazin-1-yl)-5-oxopentyl)-N10-((S)-1-((2S,4R)-4-hydroxy-2-((4-(4-methylthiazol-5-yl)benzyl)carbamoyl)pyrrolidin-1-yl)-3,3-dimethyl-1-oxobutan-2-yl)decanediamide], the 50% inhibitory concentration (IC50) in assay [1] (setting [4]) was 72 nM; in assay [2] (setting [5]) it was > 10000 nM; in assay [3] (Homo sapiens, HEK293, 48 h), > 10000 nM.
